# Biological target: NaV1.7 (Homo sapiens (Human), UniProt Q15858)
# Assay: NaV1.7 IC50 of Table 1 (IonWorks Barracuda population patch clamp or ligand binding assay; table does not say which)
# Format: cell-based
# Details: HEK 293 cells expressing NaV1.7
# Experimental: Ion Works Barracuda population patch clamp (PPC). PPC measurements were performed using an IonWorks Barracuda instrument (Molecular Devices Corporation, Union City, Calif.) using either PatchPlate™ PPC substrates (Molecular Devices Corporation) with 64 apertures per well. The ability to average currents from 64 recordings from each well greatly improves data consistency and recording success rates in the measurement of NaV1.7 mediated ionic currents. Calculated leak current was digitally subtracted from the total cell NaV1.7 current for each sample point acquired.
# NaV1.7 currents were elicited by a voltage clamp protocol designed to bias the NaV1.7 channels to their inactivated state as follows. […] This was followed by a relatively brief hyperpolarization to −100 mv for 300 ms, then a 20 msec test pulse to −20 mV to elicit the NaV1.7 current used to measure the pharmacology of all test compounds. Compounds were incubated for 600 sec between the pre- and post-compound reads. […] The same solutions were used to record NaV1.5 currents, with the following voltage clamp protocol. NaV1.5 currents were elicited by a voltage clamp protocol designed to bias the NaV1.5 channels to their inactivated state as follows. […] This was followed by a relatively brief hyperpolarization to −100 mv for 30 ms, then a 20 msec test pulse to −10 mV to elicit the NaV1.5 current used to measure the pharmacology of all test compounds.
# HEK 293 cells expressing NaV1.7 and NaV1.5 channels, were used (Essen Biosciences, Ann Arbor, Mich.). […] Cells were grown to 70% to 90% confluence in a flask and removed from the incubator (37° C., 5% CO2) 1 to 3 days after plating. Growth medium was aspirated from the culture flasks. […] Next a total of 2 mL TrypLE (Gibco) solution was added, and the flasks containing cells were sat for 3 min at RT, after which, the cells became visibly rounded and were easily dislodged from the bottom of the flask with a few brief taps on a solid surface. A total of 8 mL of media was added to the flask to inactivate the TrypLE, and the mixture was centrifuged at 910 rpm for 4 min. The cell supernatant was decanted, and the cell pellets were resuspended in 5-6 mL of external solution followed by gentle triturations using a 10 ml pipette, and transferred to a 15 ml conical tube and immediately brought to the IW Barracuda instrument.
# Peak membrane currents were analyzed with IW Barracuda software and exported to Excel for further analysis. Concentration response curve fitting was performed with BMS in-house software. IC50 values were obtained by fits of the Hill equation to the average percent inhibition data plotted versus compound concentration. […] Results are reported in Table 1 (NaV1.7 Barra IC50 in nM and NaV1.5 Barra IC50 in nM).
# hNaV1.7 binding affinities were determined with a filtration binding assay using purified membranes from HEK293 cells stably expressing hNaV1.7. HEK293 cells from a 10-stack cell culture flask (approximately 10^10 cells) were dissociated, frozen, and stored at −80° C. To prepare membranes, the frozen cell pellet was thawed and suspended in 6 ml hypotonic lysis buffer (50 mM HEPES, 0.1% mammalian protease inhibitor cocktail). 1 ml of resuspended cells was added to an additional 6 ml of lysis buffer and homogenized with 30 strokes of a tight pestle in a glass homogenizer. Homogenate was centrifuged at 1000×g for 10 minutes at 4° C. and the resulting supernatant was further centrifuged at 38,500×g for 60 minutes at 4° C. The resulting pellet was resuspended in binding buffer (50 mM HEPES, 130 mM NaCl, 5.4 mM KCl, 0.8 mM MgCl2, 5 mM glucose, pH 7.4) and needle homogenized with a 25 gauge needle. Protein concentration was determined with a BCA protein assay. Purified membranes were aliquoted, flash frozen in an ethyl alcohol dry ice bath, and stored at −80° C.
# Chain of NaV1.7 (Q15858 whole entry): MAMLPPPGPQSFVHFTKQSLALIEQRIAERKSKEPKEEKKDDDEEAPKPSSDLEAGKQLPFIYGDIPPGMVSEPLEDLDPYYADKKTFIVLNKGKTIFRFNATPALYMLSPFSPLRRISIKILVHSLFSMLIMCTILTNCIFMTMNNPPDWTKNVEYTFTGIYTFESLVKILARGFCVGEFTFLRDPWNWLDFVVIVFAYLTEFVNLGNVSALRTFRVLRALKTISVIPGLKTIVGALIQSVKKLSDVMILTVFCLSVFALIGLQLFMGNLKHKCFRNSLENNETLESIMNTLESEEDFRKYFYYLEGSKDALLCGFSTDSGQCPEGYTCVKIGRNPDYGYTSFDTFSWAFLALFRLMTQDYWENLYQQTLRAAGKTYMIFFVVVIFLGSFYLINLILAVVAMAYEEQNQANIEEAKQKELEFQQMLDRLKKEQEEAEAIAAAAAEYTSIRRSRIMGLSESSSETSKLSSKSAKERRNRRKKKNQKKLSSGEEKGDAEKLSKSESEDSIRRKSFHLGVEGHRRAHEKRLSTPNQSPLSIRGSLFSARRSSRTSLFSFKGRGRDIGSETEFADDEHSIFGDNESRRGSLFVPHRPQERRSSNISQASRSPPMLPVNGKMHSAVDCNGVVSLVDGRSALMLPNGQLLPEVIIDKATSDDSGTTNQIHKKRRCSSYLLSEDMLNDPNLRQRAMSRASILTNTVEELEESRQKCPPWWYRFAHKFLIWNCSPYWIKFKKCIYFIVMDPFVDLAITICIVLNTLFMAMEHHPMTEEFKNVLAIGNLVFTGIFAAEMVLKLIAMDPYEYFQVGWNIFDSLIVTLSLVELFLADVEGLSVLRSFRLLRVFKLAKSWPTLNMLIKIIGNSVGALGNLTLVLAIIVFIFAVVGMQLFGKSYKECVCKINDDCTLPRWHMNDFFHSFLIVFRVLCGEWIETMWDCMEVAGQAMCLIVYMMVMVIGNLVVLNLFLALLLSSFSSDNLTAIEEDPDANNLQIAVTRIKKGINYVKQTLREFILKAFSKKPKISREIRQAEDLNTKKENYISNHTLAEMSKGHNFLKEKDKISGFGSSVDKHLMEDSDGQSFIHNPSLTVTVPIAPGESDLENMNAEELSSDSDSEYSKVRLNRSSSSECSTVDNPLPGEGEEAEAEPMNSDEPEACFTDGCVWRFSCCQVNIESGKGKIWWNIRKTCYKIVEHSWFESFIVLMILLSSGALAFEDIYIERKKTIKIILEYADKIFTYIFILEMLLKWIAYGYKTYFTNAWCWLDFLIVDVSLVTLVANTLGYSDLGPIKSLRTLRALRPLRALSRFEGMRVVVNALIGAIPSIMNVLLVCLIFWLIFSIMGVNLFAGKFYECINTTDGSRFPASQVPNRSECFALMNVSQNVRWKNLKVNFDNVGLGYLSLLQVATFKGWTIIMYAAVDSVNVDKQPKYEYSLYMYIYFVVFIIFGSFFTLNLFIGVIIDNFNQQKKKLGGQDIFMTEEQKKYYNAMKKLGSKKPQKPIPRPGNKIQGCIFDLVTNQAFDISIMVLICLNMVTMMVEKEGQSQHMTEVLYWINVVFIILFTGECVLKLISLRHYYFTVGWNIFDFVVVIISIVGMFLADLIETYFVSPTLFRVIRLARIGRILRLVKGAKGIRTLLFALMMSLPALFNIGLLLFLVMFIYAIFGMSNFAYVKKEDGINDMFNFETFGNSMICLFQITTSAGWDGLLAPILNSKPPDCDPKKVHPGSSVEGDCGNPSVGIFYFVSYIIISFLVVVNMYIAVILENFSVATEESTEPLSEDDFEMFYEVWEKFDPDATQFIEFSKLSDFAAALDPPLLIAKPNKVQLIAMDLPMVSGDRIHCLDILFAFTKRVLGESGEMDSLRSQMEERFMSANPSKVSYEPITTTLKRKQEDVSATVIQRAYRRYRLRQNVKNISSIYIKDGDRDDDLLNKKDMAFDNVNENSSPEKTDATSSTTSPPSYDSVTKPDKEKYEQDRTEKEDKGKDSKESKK
row,Structure (SMILES),IC50
1,"O=S(=O)(Nc1nccs1)c1cc(Cl)c(N2CCC(CO)C2)cc1F (stereo not shown) [Example 70, 5-chloro-2-fluoro-4-(3-(hydroxymethyl)pyrrolidin-1-yl)-N-(thiazol-2-yl)benzenesulfonamide]",806 nM
2,"O=S(=O)(Nc1nccs1)c1cc(Cl)c(NCC2CCC(N3CCC3)CC2)cc1F (stereo not shown) [Example 25, 4-(((4-(Azetidin-1-yl)cyclohexyl)methyl)amino)-5-chloro-2-fluoro-N-(thiazol-2-yl)benzenesulfonamide]",50 nM
3,"O=S(=O)(Nc1nccs1)c1cc(Cl)c(NCCC2CCNC2)cc1F (stereo not shown) [Example 13, 5-Chloro-2-fluoro-4-((2-(pyrrolidin-3-yl)ethyl)amino)-N-(thiazol-2-yl)benzenesulfonamide]",17 nM
4,"NC1CCC(COc2cc(F)c(S(=O)(=O)Nc3ncns3)cc2F)(Cc2ccc(Cl)c(F)c2)CC1 (single isomer, unassigned) [Example 61, 4-((4-amino-1-(4-chloro-3-fluorobenzyl)cyclohexyl)methoxy)-2,5-difluoro-N-(1,2,4-thiadiazol-5-yl)benzenesulfonamide]",52 nM
5,"NC1CCC(CCOc2cc(F)c(S(=O)(=O)Nc3ncns3)cc2F)CC1 (stereo not shown) [Example 60, 4-(2-(4-Aminocyclohexyl)ethoxy)-2,5-difluoro-N-(1,2,4-thiadiazol-5-yl)benzenesulfonamide]",367 nM
6,"CC1(CCOc2cc(F)c(S(=O)(=O)Nc3ncns3)cc2F)CCC(N)CC1 (single isomer, unassigned) [Example 56, 4-(2-((1s,4s)-4-Amino-1-methylcyclohexyl)ethoxy)-2,5-difluoro-N-(1,2,4-thiadiazol-5-yl)benzenesulfonamide]",78 nM
7,"NC1CCC(CCOc2cc(F)c(S(=O)(=O)Nc3ncns3)cc2F)(c2ccccc2)CC1 (single isomer, unassigned) [Example 50, 4-(2-(4-amino-1-phenylcyclohexyl)ethoxy)-2,5-difluoro-N-(1,2,4-thiadiazol-5-yl)benzenesulfonamide]",473 nM
8,"CC1(CCOc2cc(F)c(S(=O)(=O)Nc3ncns3)cc2F)CCC(N)CC1 (single isomer, unassigned) [Example 57, 4-(2-((1s,4s)-4-Amino-1-methylcyclohexyl)ethoxy)-2,5-difluoro-N-(1,2,4-thiadiazol-5-yl)benzenesulfonamide]",383 nM
9,"O=S(=O)(Nc1nccs1)c1cc(Cl)c(N[C@H]2CC[C@@H](O)CC2)cc1F [Example 36, 5-Chloro-2-fluoro-4-(((1s,4s)-4-hydroxycyclohexyl)amino)-N-(thiazol-2-yl)benzenesulfonamide]",210 nM
10,"O=S(=O)(Nc1nccs1)c1cc(Cl)c(NCC2(CN3CCCC3)CC2)cc1F [Example 12, 5-Chloro-2-fluoro-4-(((1-(pyrrolidin-1-ylmethyl)cyclopropyl)methyl)amino)-N-(thiazol-2-yl)benzenesulfonamide]",11 nM
11,"N[C@H]1CC[C@@H](CNc2cc(F)c(S(=O)(=O)Nc3ncns3)cc2Cl)CC1 [Example 19, 4-((((1s,4s)-4-Aminocyclohexyl)methyl)amino)-5-chloro-2-fluoro-N-(1,2,4-thiadiazol-5-yl)benzenesulfonamide]",16 nM

# The remaining molecules from weak to strong by IC50, led by results:
row,IC50,Structure (SMILES)
1,291 nM,"O=S(=O)(Nc1nccs1)c1cc(Cl)c(N2CCCC(C3CCNCC3)C2)cc1F (stereo not shown) [Example 66, 4-([3,4′-bipiperidin]-1-yl)-5-chloro-2-fluoro-N-(thiazol-2-yl)benzenesulfonamide]"
2,285 nM,"O=S(=O)(Nc1ncns1)c1cc(F)c(OCC2(Cc3ccc(Cl)c(F)c3)CCC(O)CC2)cc1F (stereo not shown) [Example 64, 4-((1-(4-chloro-3-fluorobenzyl)-4-hydroxycyclohexyl)methoxy)-2,5-difluoro-N-(1,2,4-thiadiazol-5-yl)benzenesulfonamide]"
3,221 nM,"O=S(=O)(Nc1nccs1)c1cc(Cl)c(NCCC2CCCO2)cc1F (stereo not shown) [Example 39, 5-Chloro-2-fluoro-4-((2-(tetrahydrofuran-2-yl)ethyl)amino)-N-(thiazol-2-yl)benzenesulfonamide]"
4,69 nM,"CN(C)C1CCC(CNc2cc(F)c(S(=O)(=O)Nc3nccs3)cc2Cl)CC1 (stereo not shown) [Example 24, 5-Chloro-4-(((4-(dimethylamino)cyclohexyl)methyl)amino)-2-fluoro-N-(thiazol-2-yl)benzenesulfonamide]"
5,41 nM,"O=S(=O)(Nc1nccs1)c1cc(Cl)c(NCCC2CCCCN2O)cc1F (stereo not shown) [Example 75, 5-chloro-2-fluoro-4-((2-(1-hydroxypiperidin-2-yl)ethyl)amino)-N-(thiazol-2-yl)benzenesulfonamide]"
6,29 nM,"O=S(=O)(Nc1nccs1)c1cc(Cl)c(NCCC2CNC2)cc1F [Example 16, 4-((2-(Azetidin-3-yl)ethyl)amino)-5-chloro-2-fluoro-N-(thiazol-2-yl)benzenesulfonamide]"
7,27 nM,"O=S(=O)(Nc1nccs1)c1cc(Cl)c(NCC2CCC(N3CCOCC3)CC2)cc1F (stereo not shown) [Example 26, 5-Chloro-2-fluoro-4-(((4-morpholinocyclohexyl)methyl)amino)-N-(thiazol-2-yl)benzenesulfonamide]"
8,7 nM,"N[C@H]1CC[C@@H](CNc2cc(F)c(S(=O)(=O)Nc3nccs3)cc2Cl)CC1 [Example 20, 4-((((1s,4s)-4-Aminocyclohexyl)methyl)amino)-5-chloro-2-fluoro-N-(thiazol-2-yl)benzenesulfonamide]"

# Source: patent US10836758B2, “Acyl sulfonamide NaV1.7 inhibitors” (BRISTOL-MYERS SQUIBB COMPANY, priority 2016, dated 2020)
